According to patent US20230183193A1, “4-DIFLUOROMETHYL BENZOYL AMIDES WITH HERBICIDAL ACTION” (BAYER CROPSCIENCE AKTIENGESELLSCHAFT, priority 2017, published 2023):

Experiments:
Assay type in all cases: in vivo
Alopecurus myosuroides [1] = assay: Pre-emergence herbicidal action, ALOMY; settings: dosage 320 g/ha, scored visually after 3 weeks vs untreated controls
Source text: (§1) 1. Pre-Emergence Herbicidal Action Against Harmful Plants Seeds of monocotyledonous and dicotyledonous weed plants and crop plants are laid out in sandy loam soil in wood-fiber pots and covered with soil. The compounds of the invention, formulated in the form of wettable powders (WP) or as emulsion concentrates (EC), are then applied to the surface of the covering soil in the form of an aqueous suspension or emulsion at a water application rate equating to […], with addition of 0.2% wetting agent. After the treatment, the pots are placed in a greenhouse and kept under good growth conditions for the trial plants. The damage to the test plants is scored visually after a test period of 3 weeks by comparison with untreated controls (herbicidal activity in percent (%): 100% activity=the plants have died, 0% activity=like control plants).
(§2) For comparison, the herbicidal activity of numerous compounds according to the invention was tested with the structurally closest compounds known from the documents WO 2011/035874, WO 2012/028579 and WO 2012/126932, by the pre- and post-emergence method.

Viola tricolor [2] = assay: Post-emergence herbicidal action, VIOTR; settings: 80 g/ha, Table D
Description: (§3) Seeds of monocotyledonous and dicotyledonous weed and crop plants are laid out in sandy loam soil in wood-fiber pots, covered with soil and cultivated in a greenhouse under good growth conditions. 2 to 3 weeks after sowing, the test plants are treated at the one-leaf stage. The compounds of the invention, formulated in the form of wettable powders (WP) or as emulsion concentrates (EC), are then sprayed onto the green parts of the plants in the form of an aqueous suspension or emulsion at a water application rate equating to […], with addition of 0.2% wetting agent. After the test plants have been left to stand in the greenhouse under optimal growth conditions for about 3 weeks, the action of the preparations is assessed visually in comparison to untreated controls (herbicidal action in percent (%): 100% activity=the plants have died, 0% activity=like control plants). […] At the same time, inventive compounds leave Gramineae crops such as barley, wheat, rye, millet/sorghum, corn or rice virtually undamaged when applied post-emergence, even at high active compound dosages. In addition, some substances are also harmless to dicotyledonous crops such as soya, cotton, oilseed rape, sugar beet or potatoes. Some of the compounds according to the invention have high selectivity and are therefore suitable for controlling unwanted vegetation in agricultural crops by the post-emergence method. The data of Tables C and D below illustrate, in an exemplary manner, the […] herbicidal action of the compounds according to the invention, the herbicidal activity being stated in percent.
as §2

Abutilon theophrasti [3] = assay: Post-emergence herbicidal action, ABUTH; settings: 80 g/ha, Table D
Description: as §3, §2

Amaranthus retroflexus [4] = assay: Post-emergence herbicidal action, AMARE; settings: 80 g/ha, Table D
Description: as §3, §2

Amaranthus retroflexus [5] = assay: Pre-emergence herbicidal action, AMARE; settings: dosage 320 g/ha, scored visually after 3 weeks vs untreated controls
Source text: as §1, §2

Cyperus serotinus = assay: Pre-emergence herbicidal action, CYPES; settings: dosage 320 g/ha, scored visually after 3 weeks vs untreated controls
Source text: as §1, §2

Stellaria media [6] = assay: Post-emergence herbicidal action, STEME; settings: 80 g/ha, Table D
Description: as §3, §2

Avena fatua [7] = assay: Pre-emergence herbicidal action, AVEFA; settings: dosage 320 g/ha, scored visually after 3 weeks vs untreated controls
Source text: as §1, §2

Pharbitis purpureum = assay: Post-emergence herbicidal action, PHBPU; settings: 80 g/ha, Table D
Description: as §3, §2

ECHCG = assay: Post-emergence herbicidal action, ECHCG; settings: 80 g/ha, Table C
Description: as §3

Viola tricolor [8] = assay: Pre-emergence herbicidal action, VIOTR; settings: dosage 320 g/ha, scored visually after 3 weeks vs untreated controls
Source text: as §1, §2

Setaria viridis [9] = assay: Post-emergence herbicidal action, SETVI; settings: 80 g/ha, Table C
Description: as §3, §2

Abutilon theophrasti [10] = assay: Pre-emergence herbicidal action, ABUTH; settings: dosage 320 g/ha, scored visually after 3 weeks vs untreated controls
Source text: as §1, §2

Avena fatua [11] = assay: Post-emergence herbicidal action, AVEFA; settings: 80 g/ha, Table C
Description: as §3, §2

Setaria viridis [12] = assay: Pre-emergence herbicidal action, SETVI; settings: dosage 320 g/ha, scored visually after 3 weeks vs untreated controls
Source text: as §1, §2

Stellaria media [13] = assay: Pre-emergence herbicidal action, STEME; settings: dosage 320 g/ha, scored visually after 3 weeks vs untreated controls
Source text: as §1, §2

Matricaria inodora = assay: Pre-emergence herbicidal action, MATIN; settings: dosage 320 g/ha, scored visually after 3 weeks vs untreated controls
Source text: as §1, §2

Alopecurus myosuroides [14] = assay: Post-emergence herbicidal action, ALOMY; settings: 80 g/ha, Table C
Description: as §3, §2

| SMILES | herbicidal activity ALOMY (Alopecurus myosuroides [1]) [%] | herbicidal activity VIOTR (Viola tricolor [2]) [%] | herbicidal activity ABUTH (Abutilon theophrasti [3]) [%] | herbicidal activity AMARE (Amaranthus retroflexus [4]) [%] | herbicidal activity AMARE (Amaranthus retroflexus [5]) [%] | herbicidal activity CYPES (Cyperus serotinus) [%] | Herbicidal activity STEME (Stellaria media [6]) [%] | herbicidal activity AVEFA (Avena fatua [7]) [%] | Herbicidal activity PHBPU (Pharbitis purpureum) [%] | Herbicidal activity ECHCG (ECHCG) [%] | herbicidal activity VIOTR (Viola tricolor [8]) [%] | herbicidal activity SETVI (Setaria viridis [9]) [%] | herbicidal activity ABUTH (Abutilon theophrasti [10]) [%] | herbicidal activity AVEFA (Avena fatua [11]) [%] | herbicidal activity SETVI (Setaria viridis [12]) [%] | Herbicidal activity STEME (Stellaria media [13]) [%] | herbicidal activity MATIN (Matricaria inodora) [%] | herbicidal activity ALOMY (Alopecurus myosuroides [14]) [%] |
| --- | --- | --- | --- | --- | --- | --- | --- | --- | --- | --- | --- | --- | --- | --- | --- | --- | --- | --- |
| CCn1nnnc1NC(=O)c1ccc(C(F)F)c(S(C)(=O)=O)c1Cl [Example 2-51] | 90 | 100 | 100 | 100 | 100 | 90 | 100 | 100 | 90 | 90 | 100 | 90 | 100 | 90 | 100 | 90 | 100 | – |
| CCSc1c(C(F)F)ccc(C(=O)Nc2nnnn2CC)c1C [Example 2-4] | 100 | 100 | – | – | 100 | 100 | 100 | 100 | 100 | 90 | 100 | 90 | 100 | 100 | 100 | 90 | 100 | 90 |
| CCc1c(C(=O)Nc2nnnn2CC)ccc(C(F)F)c1[S+](C)[O-] (stereo not shown) [Example 2-14] | 100 | 100 | 100 | 100 | 100 | 100 | 100 | 100 | 90 | 100 | 100 | 100 | 100 | 90 | 100 | 100 | 100 | – |
| CCn1nnnc1NC(=O)c1ccc(C(F)F)c(S(C)(=O)=O)c1F [Example 2-39] | – | 100 | 100 | 90 | 100 | 100 | 100 | 100 | 90 | 90 | 100 | 100 | 100 | 80 | 100 | 100 | 100 | – |
| CCn1nnnc1NC(=O)c1ccc(C(F)F)c([S+](C)[O-])c1Cl (stereo not shown) [Example 2-50] | 100 | 100 | 100 | 100 | 100 | 100 | 100 | 100 | 100 | 90 | 100 | 100 | 100 | 100 | 100 | 100 | 100 | – |
| CCS(=O)(=O)c1c(C(F)F)ccc(C(=O)Nc2nnnn2C)c1F [Example 1-42] | 100 | 100 | 90 | 100 | 100 | 100 | 100 | 100 | 100 | 80 | 100 | 90 | 100 | – | 100 | 100 | 100 | – |
| CCS(=O)(=O)c1c(C(F)F)ccc(C(=O)Nc2ncnn2C)c1C [Example 4-6] | – | 100 | 100 | 100 | 100 | 100 | 100 | – | 80 | 100 | 100 | 100 | 100 | – | 90 | 90 | 100 | – |
| CCn1nnnc1NC(=O)c1ccc(C(F)F)c(S(=O)(=O)CC)c1F [Example 2-42] | 90 | 100 | 100 | 90 | 100 | 90 | 100 | 90 | 90 | 100 | 100 | 100 | 100 | – | 100 | 90 | 100 | – |
| Cc1c(C(=O)Nc2ncnn2C)ccc(C(F)F)c1[S+](C)[O-] (stereo not shown) [Example 4-2] | – | 100 | 90 | 100 | 100 | 80 | 90 | 80 | 90 | 100 | 90 | 80 | 100 | 80 | 100 | 100 | 100 | – |
| CCSc1c(C(F)F)ccc(C(=O)Nc2nnnn2CC)c1F [Example 2-40] | – | 100 | 100 | 100 | 100 | – | 100 | – | 90 | 100 | 100 | 100 | 100 | – | 100 | 100 | 100 | 80 |
| CCc1c(C(=O)Nc2nnc(C)o2)ccc(C(F)F)c1SC [Example 7-11] | 80 | 100 | 90 | 90 | 100 | 90 | 90 | 90 | 90 | 90 | 100 | 90 | 100 | – | 100 | 80 | – | 90 |
